Data taken from patent US9546139B2, “Pyridine carboxylic acid based compound used as a P2X1 and P2X3 receptor antagonist, a production method for the same and a composition comprising the same” (GWANGJU INSTITUTE OF SCIENCE AND TECHNOLOGY, priority 2010, dated 2017).
Read-outs that look alike come from different tables or passages of the source.

Tests used:
human P2X3 receptor = target: T1, human P2X3 receptor (Homo sapiens, UniProt P56373); assay: Two-electrode voltage clamp, ATP-induced ion current in Xenopus oocytes expressing human P2X3; format: cell-based; details: for inhibition at 10 µM / inhibition at 0.1 µM: read-out: % inhibition hP2X3; for inhibition at 0.1 µM: 100 nM compound
T1 construct: expressed in transfected cells; host or cells: Xenopus oocytes (cRNA injected); cDNA from the Max-Planck Institute laboratory (Dr. W. Stuhmer and Dr. F. Soto)
T1 sequence (P56373 1-397): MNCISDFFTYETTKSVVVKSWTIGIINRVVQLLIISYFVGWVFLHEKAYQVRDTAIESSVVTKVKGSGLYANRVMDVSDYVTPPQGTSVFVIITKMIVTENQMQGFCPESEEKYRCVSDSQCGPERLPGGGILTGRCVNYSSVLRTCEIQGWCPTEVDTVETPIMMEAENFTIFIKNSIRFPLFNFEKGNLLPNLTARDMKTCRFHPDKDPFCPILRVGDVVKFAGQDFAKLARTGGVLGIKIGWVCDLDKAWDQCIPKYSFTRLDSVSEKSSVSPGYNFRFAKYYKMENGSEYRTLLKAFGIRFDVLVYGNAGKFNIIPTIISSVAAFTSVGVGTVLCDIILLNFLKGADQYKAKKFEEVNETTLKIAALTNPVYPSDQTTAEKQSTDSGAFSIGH
Description: Antagonistic Activity at Recombinant Mouse P2X1 and Human P2X3 Receptors
(§1) Xenopus oocytes were harvested and prepared with method as previously described in publications. Defolliculated oocytes were injected cytosolically with mouse P2X1 and human P2X3 receptor cRNA ([…], 1 μg/mL), respectively, incubated for 24 hrs at 18° C. in Barth's solution and kept for up to 12 days at 4° C. until used in electrophysiological experiments. ATP-activated membrane currents (Vh=−70 mV) were recorded from cRNA-injected oocytes using the twin-electrode voltage-clamp technique (Axoclamp 2B amplifier). Voltage recording (1-2 MΩ tip resistance) and current-recording microelectrodes (5 MΩ tip resistance) were filled with 3.0 M KCl. Oocytes were held in an electrophysiological chamber and superfused with Ringer's solution (5 mL/min, at 18° C.) containing (mM) NaCl, 110; KCl, 2.5; HEPES, 5; BaCl2, 1.8, adjusted to pH 7.5. ATP was superfused over the oocytes for 60-120s then washed out for a period of 20 min. For inhibition curves, data were normalized to the current evoked by ATP, at pH 7.5. Test substances were added for 20 min prior to ATP exposure; all peptides were tested for reversibility of their effects. The concentration required to inhibit the ATP response by 50% (IC50) was taken from Hill plots constructed using the formula: log(I/Imax−1), where I is the current evoked by ATP in the presence of an antagonist. Data are presented as mean±SEM (n=4) for the data from different batches of oocytes.

mouse P2X1 receptor = target: T2, mouse P2X1 receptor (Mus musculus, UniProt P51576); assay: Two-electrode voltage clamp, ATP-induced ion current in Xenopus oocytes expressing mouse P2X1; format: cell-based; details: for inhibition at 10 µM / inhibition at 0.1 µM: read-out: % inhibition mP2X1; for antagonistic activity, mouse P2X1 versus human P2X3: comparison of the two receptors
T2 construct: EST clones containing full-length cDNAs of mouse P2X1 (clone ID: 4189541) and human P2X7 receptor (clone ID: 5286944); host or cells: Xenopus oocytes (cRNA injected)
T2 sequence (P51576 1-399): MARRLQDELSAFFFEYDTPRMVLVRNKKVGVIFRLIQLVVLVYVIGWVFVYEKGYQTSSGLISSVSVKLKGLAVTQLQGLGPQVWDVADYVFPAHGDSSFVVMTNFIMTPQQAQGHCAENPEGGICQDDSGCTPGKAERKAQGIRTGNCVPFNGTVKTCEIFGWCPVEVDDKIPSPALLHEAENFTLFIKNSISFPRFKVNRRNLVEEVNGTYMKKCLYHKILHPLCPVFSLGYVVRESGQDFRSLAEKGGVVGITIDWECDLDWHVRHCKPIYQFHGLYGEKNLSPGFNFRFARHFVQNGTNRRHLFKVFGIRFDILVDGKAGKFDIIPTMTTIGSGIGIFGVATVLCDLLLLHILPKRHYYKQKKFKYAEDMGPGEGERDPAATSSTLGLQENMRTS
Description: 1-1. Antagonistic Activity at Recombinant Mouse P2X1 and Human P2X3 Receptors
as §1

[1] = concentration-inhibitory curve, 2 μM ATP (FIG. 1C, FIG. 2B)
[2] = Table 1, 10 μM compound, ion current induced by 2 μM ATP, mean ± SEM, n = 4
[3] = Table 1, 100 nM compound, ion current induced by 2 μM ATP, mean ± SEM, n = 4
[4] = concentration-inhibitory curve, 2 μM ATP (FIG. 1B, FIG. 2A)
[5] = concentration-inhibitory curve, 2 μM ATP, read-out: IC50 value (FIG. 1B)
[6] = concentration-response curve, 2 μM ATP, mean of four observations, read-out: IC50 value
[7] = Table 1, ion current induced by 2 μM ATP, mean ± SEM, n = 4
[8] = concentration-inhibitory curve, 2 μM ATP, read-out: IC50 value (FIG. 1C)

With `O=C(O)c1cc(C(=O)O)c(C(=O)N(Cc2cccc(Oc3ccccc3)c2)[C@H]2CCCc3ccccc32)cc1C(=O)O` [A-317491, reference compound] as the compound, how does the Hill coefficient (human P2X3 receptor; [1]) read?
The Hill coefficient was −0.68±0.18.

`Cc1nc(N=Nc2cc(S(=O)(=O)O)ccc2S(=O)(=O)O)c(COP(=O)(O)O)c(C=O)c1O` [Compound 3, pyridoxal-phosphate-6-azophenyl-2′,5′-disulfonic acid, reference compound] was tested. Which “% inhibition mP2X1” value (mouse P2X1 receptor) did it give?
The value was 62.4 ± 3.1%.

And the Hill coefficient (mouse P2X1 receptor)?
Its Hill coefficient is −1.09±0.13.

What about the IC50 (mouse P2X1 receptor; read-out: IC50 value (FIG. 1B)) of the same compound?
The IC50 was 30.7 ± 5.12 nM.

And the “% inhibition hP2X3” value (human P2X3 receptor)?
Its value is 48.3 ± 5.6%.

And the Hill coefficient (human P2X3 receptor)?
Its Hill coefficient is −1.11±0.27.

And the IC50 (human P2X3 receptor; read-out: IC50 value (FIG. 1C))?
The IC50 was 96.2 ± 21 nM.

Which results are given for `Cc1ncc(CCC(=O)O)c(C=O)c1O` [Compound 13, 3-(4-formyl-5-hydroxy-6-methylpyridin-3-yl) propanoic acid]?
inhibition at 10 µM (mouse P2X1 receptor; [2]): 19.5 ± 5.1%; inhibition at 10 µM (human P2X3 receptor; [2]): 22.3 ± 8.1%

How did the inhibition at 10 µM (mouse P2X1 receptor; [2]) turn out when `Cc1ncc(CCC(=O)O)c(C(=O)O)c1O` [Compound 14, 5-(2-Carboxyethyl)-3-hydroxy-2-methyl isonicotinic acid] was run?
The inhibition at 10 µM was 14.8 ± 1.7%.

What about the inhibition at 10 µM (human P2X3 receptor; [2]) of the same compound?
The inhibition at 10 µM was 15.2 ± 7.7%.

How did the inhibition at 10 µM (mouse P2X1 receptor; [2]) turn out when `Cc1ncc(C=CC(=O)O)c(C=O)c1O` [Compound 17, 3-(4-Formyl-5-hydroxy-6-methylpyridin-3-yl)acrylic acid] was run?
The inhibition at 10 µM was 7.4 ± 1.9%.

And the inhibition at 10 µM (human P2X3 receptor; [2])?
Its inhibition at 10 µM is 9.3 ± 2.3%.

For `Cc1ncc(C=CC(=O)O)c(C(=O)O)c1O` [Compound 18, 5-(2-Carboxyvinyl)-3-hydroxy-2-methylisonicotinic acid], which “% inhibition mP2X1” value (mouse P2X1 receptor; [2]) is on record?
Its value is “inactive”.

What about the “% inhibition hP2X3” value (human P2X3 receptor; [2]) of the same compound?
The value was “inactive”.

`Cc1ncc(CN(CCC(=O)O)Cc2ccccc2)c(C=O)c1O` [Compound 22, 3-(Benzyl((4-formyl-5-hydroxy-6-methylpyridin-3-yl)methyl)amino)propanoic acid] was tested. Which “% inhibition mP2X1” value (mouse P2X1 receptor; [2]) did it give?
Its value is “inactive”.

And the “% inhibition hP2X3” value (human P2X3 receptor; [2])?
The value was “inactive”.

What does the source list for `Cc1ncc(CN(CCC(=O)O)Cc2ccccc2)c(C(=O)O)c1O` [Compound 23, 5-((Benzyl(2-carboxyethyl)amino)methyl)-3-hydroxy-2-methylisonicotinic acid]?
% inhibition mP2X1 (mouse P2X1 receptor; [2]): inactive; % inhibition hP2X3 (human P2X3 receptor; [2]): inactive

`Cc1nc(N=Nc2cc(S(=O)(=O)O)ccc2S(=O)(=O)O)c(CCC(=O)O)c(C=O)c1O` [Compound 24, 3-(2-((2,5-Disulfophenyl)diazenyl)-4-formyl-5-hydroxy-6-methylpyridin-3-yl)propanoic acid] was tested. Which “inhibitory activity to the ATP-induced ion current” value (mouse P2X1 receptor; FIG. 1A, 2 μM ATP, two concentrations) did it give?
The value was “concentration-dependent inhibitory activity”.

And the inhibition at 0.1 µM (mouse P2X1 receptor; [3])?
The inhibition at 0.1 µM was 58.6 ± 4.5%.

And the Hill coefficient (mouse P2X1 receptor; [4])?
Its Hill coefficient is −1.13±0.40.

What about the IC50 (mouse P2X1 receptor; [5]) of the same compound?
The IC50 was 70.5 ± 2.72 nM.

What about the IC50 (mouse P2X1 receptor; [6]) of the same compound?
The IC50 was 70 nM.

And the inhibition at 0.1 µM (human P2X3 receptor; [7])?
The inhibition at 0.1 µM was 40.1 ± 8.4%.

What about the Hill coefficient (human P2X3 receptor; [1]) of the same compound?
Its Hill coefficient is −1.18±0.25.

And the IC50 (human P2X3 receptor; [8])?
Its IC50 is 105 ± 17.5 nM.

What about the IC50 (human P2X3 receptor; [6]) of the same compound?
Its IC50 is 105 nM.

`Cc1nc(N=Nc2cc(S(=O)(=O)O)ccc2S(=O)(=O)O)c(CCC(=O)O)c(C(=O)O)c1O` [Compound 25, 3-(2-Carboxyethyl)-2-((2,5-disulfophenyl)diazenyl)-5-hydroxy-6-methylisonicotinic acid] was tested. Which “% inhibition mP2X1” value (mouse P2X1 receptor; [3]) did it give?
The value was 60.2 ± 4.9%.

And the inhibition at 0.1 µM (mouse P2X1 receptor; [3])?
Its inhibition at 0.1 µM is 60%.

And the “antagonistic activity, mouse P2X1 versus human P2X3” value (mouse P2X1 receptor)?
The value was “more powerful antagonistic activity to mouse P2X1 than human P2X3 receptor”.

What about the inhibition at 0.1 µM (human P2X3 receptor; [7]) of the same compound?
Its inhibition at 0.1 µM is 45.7 ± 10.8%.

`Cc1nc(N=Nc2ccc(S(=O)(=O)O)cc2)c(CCC(=O)O)c(C=O)c1O` [Compound 26, 3-(4-Formyl-5-hydroxy-6-methyl-2-((4-sulfophenyl)diazenyl)pyridin-3-yl)propanoic acid] was tested. Which inhibition at 0.1 µM (mouse P2X1 receptor; [3]) did it give?
The inhibition at 0.1 µM was 41.8 ± 9.8%.

And the inhibition at 0.1 µM (human P2X3 receptor; [7])?
Its inhibition at 0.1 µM is 46.5 ± 11.2%.

With `Cc1nc(N=Nc2ccc(S(=O)(=O)O)cc2)c(CCC(=O)O)c(C(=O)O)c1O` [Compound 27, 3-(2-carboxyethyl)-5-hydroxy-6-methyl-2-((4-sulfophenyl)diazenyl)isonicotinic acid] as the compound, how does the inhibition at 0.1 µM (mouse P2X1 receptor; [3]) read?
Its inhibition at 0.1 µM is 57.6 ± 8.8%.

And the “antagonistic activity, mouse P2X1 versus human P2X3” value (mouse P2X1 receptor)?
Its value is “more powerful antagonistic activity to mouse P2X1 than human P2X3 receptor”.

What about the inhibition at 0.1 µM (human P2X3 receptor; [7]) of the same compound?
The inhibition at 0.1 µM was 37.6 ± 6.9%.

With `Cc1nc(N=Nc2ccc(C(=O)O)cc2)c(CCC(=O)O)c(C=O)c1O` [Compound 28, 4-((3-(2-carboxyethyl)-4-formyl-5-hydroxy-6-methylpyridin-2-yl)diazenyl)benzoic acid] as the compound, how does the inhibition at 0.1 µM (mouse P2X1 receptor; [3]) read?
The inhibition at 0.1 µM was 48.5 ± 9.5%.

And the Hill coefficient (mouse P2X1 receptor; [4])?
Its Hill coefficient is −1.20±0.45.

And the IC50 (mouse P2X1 receptor; [5])?
The IC50 was 130 ± 13.6 nM.

And the IC50 (mouse P2X1 receptor; [6])?
Its IC50 is 130 nM.

What about the inhibition at 0.1 µM (human P2X3 receptor; [7]) of the same compound?
Its inhibition at 0.1 µM is 56.3 ± 8.8%.

What about the Hill coefficient (human P2X3 receptor; [1]) of the same compound?
The Hill coefficient was −1.08±0.02.

And the IC50 (human P2X3 receptor; [8])?
Its IC50 is 79.8 ± 1.21 nM.

And the IC50 (human P2X3 receptor; [6])?
Its IC50 is 80 nM.

With `Cc1nc(N=Nc2ccc(C(=O)O)cc2)c(CCC(=O)O)c(C(=O)O)c1O` [Compound 29, 3-(2-carboxyethyl)-2-((4-carboxyphenyl)diazenyl)-5-hydroxy-6-methy lisonicotinic acid] as the compound, how does the inhibition at 0.1 µM (mouse P2X1 receptor; [3]) read?
Its inhibition at 0.1 µM is 51.7 ± 7.4%.

And the “antagonistic activity, mouse P2X1 versus human P2X3” value (mouse P2X1 receptor)?
The value was “more powerful antagonistic activity to mouse P2X1 than human P2X3 receptor”.

And the inhibition at 0.1 µM (human P2X3 receptor; [7])?
Its inhibition at 0.1 µM is 25.7 ± 6.9%.

How did the Hill coefficient (mouse P2X1 receptor; [4]) turn out when `Cc1nc(/N=N/c2ccc(C(=O)O)cc2)c(COP(=O)(O)O)c(C=O)c1O` [MRS2159, reference compound] was run?
The Hill coefficient was −1.13±0.20.
